Measured values as given in patent publication US11053204B2, “Pyrimidinyloxy benzene derivatives as herbicides” (FMC Corporation, priority 2015, dated 2021).

Columns and labels:
Type in all cases: in vivo
[1] = test system: barnyardgrass (Echinochloa crus-galli); assay: Test B flooded paddy test, plant response rating; conditions: 250 g ai/ha; Flood; scale of 0 to 100 where 0 is no effect and 100 is complete control; 13 to 15 days
Outline: (§1)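 Test compounds are applied straight into paddy water held 3 cm above the soil surface, with that flood maintained for the whole test. After 13 to 15 days in the greenhouse, each species is scored visually relative to controls.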

[2] = test system: ducksalad (Heteranthera limosa); assay: Test B flooded paddy test, plant response rating; conditions: 250 g ai/ha; Flood; scale of 0 to 100 where 0 is no effect and 100 is complete control; 13 to 15 days
Outline: as §1

[3] = test system: rice (Oryza sativa); assay: Test B flooded paddy test, plant response rating; conditions: 250 g ai/ha; Flood; scale of 0 to 100 where 0 is no effect and 100 is complete control; 13 to 15 days
Outline: as §1

[4] = test system: sedge, umbrella (small-flower umbrella sedge, Cyperus difformis); assay: Test B flooded paddy test, plant response rating; conditions: 250 g ai/ha; Flood; scale of 0 to 100 where 0 is no effect and 100 is complete control; 13 to 15 days
Outline: as §1

[5] = test system: pigweed (Amaranthus retroflexus); assay: Test A postemergence, visual injury rating
Outline: (§2)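 Visual 0–100 rating (100 = complete control) taken about 10 d post-treatment relative to untreated checks. Preemergence: directed soil spray on sown loam/sand pots. Postemergence: seedlings 2–10 cm, 1–2 leaf. Non-phytotoxic solvent formulation with surfactant.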

[6] = test system: Italian ryegrass (Lolium multiflorum); assay: Test A postemergence, visual injury rating
Outline: as §2

[7] = test system: barnyardgrass (Echinochloa crus-galli); assay: Test A postemergence, visual injury rating; conditions: 0 is no effect, 100 is complete control; for Barnyardgrass plant response rating: 0 to 100 scale, approximately 10 days
Outline: as §2

[8] = test system: corn (Zea mays); assay: Test A postemergence, visual injury rating
Outline: as §2

[9] = test system: kochia (Kochia scoparia); assay: Test A postemergence, visual injury rating
Outline: as §2

[10] = test system: ragweed (common ragweed, Ambrosia elatior); assay: Test A postemergence, visual injury rating
Outline: as §2

[11] = test system: giant foxtail (Setaria faberii); assay: Test A postemergence, visual injury rating
Outline: as §2

[12] = test system: galium (catchweed bedstraw, Galium aparine); assay: Test A postemergence, visual injury rating
Outline: as §2

[13] = test system: wheat (Triticum aestivum); assay: Test A postemergence, visual injury rating
Outline: as §2

[14] = test system: blackgrass (Alopecurus myosuroides); assay: Test A postemergence, visual injury rating
Outline: as §2

[15] = test system: pigweed (Amaranthus retroflexus); assay: Test A preemergence, visual injury rating
Outline: as §2

[16] = test system: Italian ryegrass (Lolium multiflorum); assay: Test A preemergence, visual injury rating
Outline: as §2

[17] = test system: barnyardgrass (Echinochloa crus-galli); assay: Test A preemergence, visual injury rating
Outline: as §2

[18] = test system: kochia (Kochia scoparia); assay: Test A preemergence, visual injury rating
Outline: as §2

[19] = test system: ragweed (common ragweed, Ambrosia elatior); assay: Test A preemergence, visual injury rating
Outline: as §2

[20] = test system: giant foxtail (Setaria faberii); assay: Test A preemergence, visual injury rating
Outline: as §2

[21] = 31 g ai/ha, 0 to 100 scale (0 no effect, 100 complete control)
[22] = 125 g ai/ha, 0 to 100 scale, 0 is no effect, 100 is complete control, approximately 10 days
[23] = 31 g ai/ha, 0 to 100 scale, 0 no effect, 100 complete control
[24] = 125 g ai/ha, 0 to 100 scale (0 no effect, 100 complete control)
[25] = 500 g ai/ha, 0 is no effect, 100 is complete control
[26] = 500 g ai/ha, 0 to 100 scale (0 no effect, 100 complete control)

| Structure (SMILES) | Plant response rating, Barnyardgrass [1] | Plant response rating, Ducksalad [2] | Plant response rating, Rice [3] | Plant response rating, Sedge, Umbrella [4] | Pigweed plant response rating [5, 22] | Ryegrass, Italian plant response rating [6, 22] | Barnyardgrass plant response rating ([7]; 125 g ai/ha) | Corn plant response rating [8, 22] | Kochia plant response rating [9, 22] | Ragweed plant response rating [10, 22] | Foxtail, Giant plant response rating [11, 22] | Galium plant response rating [12, 22] | Wheat plant response rating [13, 22] | Blackgrass plant response rating [14, 22] | Plant response rating, Pigweed [15, 24] | Plant response rating, Ryegrass, Italian [16, 24] | Plant response rating, Barnyardgrass [17, 24] | Plant response rating, Kochia [18, 24] | Plant response rating, Ragweed [19, 24] | Plant response rating, Foxtail, Giant [20, 24] | also measured |
| --- | --- | --- | --- | --- | --- | --- | --- | --- | --- | --- | --- | --- | --- | --- | --- | --- | --- | --- | --- | --- | --- |
| CCc1cccc(Oc2ncc(Cl)cn2)c1CCCCC(F)(F)F [Compound 134] | 0 | 95 | 20 | 95 | 80 | 10 | 20 | 10 | 60 | 10 | 20 | 40 | 10 | 20 | 50 | 20 | 80 | 10 | 0 | 90 | Pigweed plant response rating [5, 21]: 40; Ryegrass, Italian plant response rating [6, 21]: 0; Barnyardgrass plant response rating ([7]; 31 g ai/ha): 0; Corn plant response rating [8, 21]: 10; Kochia plant response rating [9, 21]: 20; Ragweed plant response rating [10, 21]: 0; Foxtail, Giant plant response rating [11, 21]: 10; Galium plant response rating [12, 21]: 10; Wheat plant response rating [13, 21]: 0; Blackgrass plant response rating [14, 21]: 10; Plant response rating, Pigweed [15, 23]: 0; Plant response rating, Ryegrass, Italian [16, 23]: 0; Plant response rating, Barnyardgrass [17, 23]: 0; Plant response rating, Kochia [18, 23]: 0; Plant response rating, Ragweed [19, 23]: 0; Plant response rating, Foxtail, Giant [20, 23]: 10 |
| FC(F)(F)CCCCc1c(Oc2ncc(Cl)cn2)cccc1C1CC1 [Compound 135] | 0 | 85 | 20 | 85 | 90 | 10 | 10 | 20 | 60 | 10 | 20 | 80 | 0 | 20 | 20 | 10 | 40 | 0 | 0 | 50 | Pigweed plant response rating [5, 21]: 40; Ryegrass, Italian plant response rating [6, 21]: 0; Barnyardgrass plant response rating ([7]; 31 g ai/ha): 0; Corn plant response rating [8, 21]: 10; Kochia plant response rating [9, 21]: 10; Ragweed plant response rating [10, 21]: 0; Foxtail, Giant plant response rating [11, 21]: 10; Galium plant response rating [12, 21]: 50; Wheat plant response rating [13, 21]: 0; Blackgrass plant response rating [14, 21]: 0; Plant response rating, Pigweed [15, 23]: 0; Plant response rating, Ryegrass, Italian [16, 23]: 0; Plant response rating, Barnyardgrass [17, 23]: 0; Plant response rating, Kochia [18, 23]: 0; Plant response rating, Ragweed [19, 23]: 0; Plant response rating, Foxtail, Giant [20, 23]: 0 |
| O=Cc1c(Cl)cccc1Oc1ncc(Cl)cn1 [Compound 139] | 0 | 30 | 0 | 0 | 0 | 0 | 0 | 0 | 0 | 0 | 0 | 0 | 0 | 0 | 0 | 0 | 0 | 0 | 50 | 0 | Pigweed plant response rating (0 to 100 scale) [5, 25]: 0; Ryegrass, Italian plant response rating (0 to 100 scale) [6, 25]: 20; Barnyardgrass plant response rating (0 to 100 scale) ([7]; 500 g ai/ha): 0; Corn plant response rating (0 to 100 scale) [8, 25]: 0; Kochia plant response rating (0 to 100 scale) [9, 25]: 0; Ragweed plant response rating (0 to 100 scale) [10, 25]: 0; Foxtail, Giant plant response rating (0 to 100 scale) [11, 25]: 0; Galium plant response rating (0 to 100 scale) [12, 25]: 0; Wheat plant response rating (0 to 100 scale) [13, 25]: 0; Blackgrass plant response rating (0 to 100 scale) [14, 25]: 0; Pigweed plant response rating [15, 26]: 0; Ryegrass, Italian plant response rating [16, 26]: 0; Barnyardgrass plant response rating [17, 26]: 0; Kochia plant response rating [18, 26]: 0; Ragweed plant response rating [19, 26]: 0; Foxtail, Giant plant response rating [20, 26]: 0 |
| N#CCc1ccccc1Oc1ncc(Cl)cn1 [Compound 140] | 0 | 0 | 0 | 0 | 20 | 0 | 0 | 0 | 30 | 0 | 0 | 0 | 0 | 0 | 10 | 10 | 0 | 40 | 0 | 0 | Pigweed plant response rating [5, 21]: 0; Ryegrass, Italian plant response rating [6, 21]: 0; Barnyardgrass plant response rating ([7]; 31 g ai/ha): 0; Corn plant response rating [8, 21]: 0; Kochia plant response rating [9, 21]: 0; Ragweed plant response rating [10, 21]: 0; Foxtail, Giant plant response rating [11, 21]: 0; Galium plant response rating [12, 21]: 0; Wheat plant response rating [13, 21]: 0; Blackgrass plant response rating [14, 21]: 0; Plant response rating, Pigweed [15, 23]: 0; Plant response rating, Ryegrass, Italian [16, 23]: 10; Plant response rating, Barnyardgrass [17, 23]: 0; Plant response rating, Kochia [18, 23]: 0; Plant response rating, Ragweed [19, 23]: 0; Plant response rating, Foxtail, Giant [20, 23]: 0 |
| CCCCCC(C#N)c1ccccc1Oc1ncc(Cl)cn1 (stereo not drawn) [Compound 141, 2-[(5-chloro-2-pyrmidinyl)oxy]-α-pentylbenzeneacetonitrile] | 20 | 70 | 10 | 50 | 70 | 10 | 20 | 20 | 60 | 20 | 40 | 60 | 0 | 10 | 90 | 10 | 60 | 20 | 30 | 100 | Pigweed plant response rating [5, 21]: 40; Ryegrass, Italian plant response rating [6, 21]: 0; Barnyardgrass plant response rating ([7]; 31 g ai/ha): 10; Corn plant response rating [8, 21]: 10; Kochia plant response rating [9, 21]: 50; Ragweed plant response rating [10, 21]: 0; Foxtail, Giant plant response rating [11, 21]: 20; Galium plant response rating [12, 21]: 40; Wheat plant response rating [13, 21]: 0; Blackgrass plant response rating [14, 21]: 0; Plant response rating, Pigweed [15, 23]: 0; Plant response rating, Ryegrass, Italian [16, 23]: 0; Plant response rating, Barnyardgrass [17, 23]: 0; Plant response rating, Kochia [18, 23]: 10; Plant response rating, Ragweed [19, 23]: 0; Plant response rating, Foxtail, Giant [20, 23]: 10 |
